Experimental data from patent US9023882B2, “5-membered nitrogen containing heterocyclic derivatives and pharmaceutical compositions comprising the same” (Kissei Pharmaceutical Co., Ltd., priority 2007, dated 2015).

Key:
[1] = target: Xanthine oxidase (from bovine milk, Sigma) (Bos taurus (Bovine), UniProt P80457); experiment: Xanthine oxidase inhibitory activity; assay type: biochemical; details: absorbance at 290 nm
Outline: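 Bovine milk enzyme at 0.02 units/mL in PBS was mixed with compound (DMSO stock diluted in PBS) and 200 μM xanthine stock, reacting 10 min at room temperature. Uric acid formation was read as absorbance at 290 nm; IC50 was derived with no-xanthine wells as 0% and no-compound control as 100%.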

[2] = system: BBMV from human kidney cortex; experiment: Inhibitory activity of uric acid transport with brush-border membrane vesicles (BBMV); assay type: biochemical; details: test compound 100 μM; uptake of 14C-labeled uric acid into human kidney cortex BBMV
Experimental: Inhibitory activity of uric acid transport of test compounds was performed on the basis of methods described in a reference (Am. J. Physiol. 266 (Renal Fluid Electrolyte Physiol. 35): F797-F805, 1994) with a partial modification.
(1) Preparation of BBMV from Human Kidney Cortex
BBMV from human kidney cortex were purchased from KAC. Renal cortex was dissected from human kidney and cut into small pieces. Then, the cortex was homogenized in 5 volumes of ice-cold isotonic buffer (300 mM mannitol, 5 mM ethylene glycol-bis-(β-aminoethylether)-N,N,N′,N′-tetraacetic acid (EGTA), 12 mM tris(hydroxymethyl)aminomethane (Tris).HCl, pH 7.4). After adding 1 M magnesium chloride to a final concentration of 12 mM, and then the suspension was mixed and allowed to stand on ice for 15 minutes. The homogenized solution was centrifuged at 2,500×g for 15 minutes at 4° C., furthermore, the supernatant was centrifuged at 30,000×g for 30 minutes at 4° C. The pellet was resuspended in ice-cold buffer 1 (150 mM mannitol, 2.5 mM EGTA, 6 mM Tris.HCl, pH 7.4). After adding 1 M magnesium chloride to a final concentration of 12 mM, and then the suspension was mixed and allowed to stand on ice for 15 minutes. After centrifugation again at 2,500×g for 15 minutes at 4° C., furthermore, the supernatant was centrifuged at 30,000×g for 30 minutes at 4° C. The pellet was resuspended in ice-cold buffer 2 (100 mM mannitol, 100 mM potassium gluconate, 20 mM 2-[4-(2-hydroxyethyl)-1-piperazinyl]-ethanesulfonic acid (Hepes)-Tris, pH 7.4). After centrifugation at 30,000×g for 30 minutes at 4° C., the pellet was resuspended in buffer 2, and then the protein concentration was determined
(2) Preparation of Test Compounds […]
BBMV were thawed on ice. […] The uptake of uric acid into BBMV was measured by the rapid-filtration technique. […] Furthermore, filters were washed twice with 3 mL of stop solution and dissolved in 10 mL of Filter-Count (PerkinElmer), and the radioactivity was counted in a liquid scintillation counter (PerkinElmer). The radioactivity associated with the filters in the absence of BBMV was used as corrections. […]

human URAT1 = human URAT1 (Homo sapiens (Human), UniProt Q96S37); experiment: Inhibitory activity of uric acid transport with human URAT1 expressing cells; assay type: cell-based; details: COS-7; test compound 100 μM; 14C-labeled uric acid uptake in COS7 cells transiently expressing human URAT1
Experimental: (1) Preparation of Transiently Human URAT1 Expressing Cells
Full length human URAT1 cDNA (NCBI Accession No. NM_144585) was subcloned into expression vector, pcDNA3.1 (Invitrogen). Human URAT1 expression vector was transfected into COS7 cells (RIKEN CELL BANK RCB0539) using Lipofectamine 2000 (Invitrogen). COS7 cells were cultured in collagen-coated 24 well plates (Asahi Techno Glass) at 2×10^5/well in D-MEM culture medium (Invitrogen) containing 10% fetal bovine serum (Sanko Junyaku) for 2 hours at 37° C. under the condition of 5% CO2. For 1 well, 2 μL of Lipofectamine 2000 was diluted in 50 μL of OPTI-MEM (Invitrogen) and allowed to stand at room temperature for 7 minutes (hereinafter referred to as Lipo2000-OPTI). For 1 well, 0.8 μg of human URAT1 expression vector was diluted in 50 μL of OPTI-MEM (Invitrogen) and combined gently with Lipo2000-OPTI. After standing at room temperature for 25 minutes, the mixture was added to COS7 cells at 100 μL/well. Furthermore, COS7 cells were cultured for 2 days at 37° C. under the condition of 5% CO2 and used for measuring inhibitory activity on the uptake.
(2) Preparation of Test Compounds
Test compounds were dissolved in DMSO (Wako) at 10 mM concentration and then diluted to 2 times higher concentration than intended with pre-treatment buffer (125 mM sodium gluconate, 4.8 mM potassium gluconate, 1.2 mM potassium dihydrogen phosphate, 1.2 mM magnesium sulfate, 1.3 mM calcium gluconate, 5.6 mM glucose, 25 mM Hepes, pH 7.4). Pre-treatment buffer without test compounds was used for control. […]
All tests were performed on hot-plate at 37° C. […] After mixing, the radioactivity was counted in a liquid scintillation counter (PerkinElmer). The radioactivity in COST cells not transfected with URAT1 expression vector was also counted under the same condition as control. […] Percent inhibition (%)=[1−(B−C)/(A−C)]×100 A: Radioactivity in control B: Radioactivity in the case of addition of test compounds C: Radioactivity in COST cells not transfected with URAT1 expression vector

serum uric acid = experiment: Serum hypouricemic effect; assay type: in vivo; details: 1 mg/kg oral, male CD (SD) IGS rats, 2 hours after administration
Experimental: (1) Method for Measurement
Test compounds at 1 mg/kg suspended in 0.5% methylcellulose solution were administered orally to overnight fasted male CD (SD) IGS rats (5-week-old, Charls River Japan). At 2 hours after administration, blood was collected under ether anesthesia from abdominal aorta, and serum was separated according to general method. Serum uric acid values were determined by use of uric acid measurement kit (Uric acid C-Test Wako: Wako), and percent decrease in uric acid was calculated according to the formula described below. Percent decrease in uric acid (%)=(Serum uric acid values in control animals−Serum uric acid values in animals administered test compounds)×100/Serum uric acid values in control animals (2) Results

Sequence of human URAT1 (Q96S37 whole entry): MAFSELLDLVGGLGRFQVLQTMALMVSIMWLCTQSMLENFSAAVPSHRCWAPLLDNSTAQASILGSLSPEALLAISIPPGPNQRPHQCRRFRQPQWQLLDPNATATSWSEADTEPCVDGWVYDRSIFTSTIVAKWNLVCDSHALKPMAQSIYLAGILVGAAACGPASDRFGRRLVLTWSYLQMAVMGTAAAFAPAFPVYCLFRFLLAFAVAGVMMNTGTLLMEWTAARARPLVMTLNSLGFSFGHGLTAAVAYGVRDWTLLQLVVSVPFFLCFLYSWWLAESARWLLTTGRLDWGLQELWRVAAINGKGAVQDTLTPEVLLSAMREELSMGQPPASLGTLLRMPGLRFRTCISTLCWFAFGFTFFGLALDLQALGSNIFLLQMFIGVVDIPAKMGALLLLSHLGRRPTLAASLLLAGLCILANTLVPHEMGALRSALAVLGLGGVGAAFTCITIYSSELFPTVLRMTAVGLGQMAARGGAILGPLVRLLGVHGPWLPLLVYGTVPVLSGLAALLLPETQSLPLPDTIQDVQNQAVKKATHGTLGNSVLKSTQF
Sequence of Xanthine oxidase (from bovine milk, Sigma) (P80457 whole entry): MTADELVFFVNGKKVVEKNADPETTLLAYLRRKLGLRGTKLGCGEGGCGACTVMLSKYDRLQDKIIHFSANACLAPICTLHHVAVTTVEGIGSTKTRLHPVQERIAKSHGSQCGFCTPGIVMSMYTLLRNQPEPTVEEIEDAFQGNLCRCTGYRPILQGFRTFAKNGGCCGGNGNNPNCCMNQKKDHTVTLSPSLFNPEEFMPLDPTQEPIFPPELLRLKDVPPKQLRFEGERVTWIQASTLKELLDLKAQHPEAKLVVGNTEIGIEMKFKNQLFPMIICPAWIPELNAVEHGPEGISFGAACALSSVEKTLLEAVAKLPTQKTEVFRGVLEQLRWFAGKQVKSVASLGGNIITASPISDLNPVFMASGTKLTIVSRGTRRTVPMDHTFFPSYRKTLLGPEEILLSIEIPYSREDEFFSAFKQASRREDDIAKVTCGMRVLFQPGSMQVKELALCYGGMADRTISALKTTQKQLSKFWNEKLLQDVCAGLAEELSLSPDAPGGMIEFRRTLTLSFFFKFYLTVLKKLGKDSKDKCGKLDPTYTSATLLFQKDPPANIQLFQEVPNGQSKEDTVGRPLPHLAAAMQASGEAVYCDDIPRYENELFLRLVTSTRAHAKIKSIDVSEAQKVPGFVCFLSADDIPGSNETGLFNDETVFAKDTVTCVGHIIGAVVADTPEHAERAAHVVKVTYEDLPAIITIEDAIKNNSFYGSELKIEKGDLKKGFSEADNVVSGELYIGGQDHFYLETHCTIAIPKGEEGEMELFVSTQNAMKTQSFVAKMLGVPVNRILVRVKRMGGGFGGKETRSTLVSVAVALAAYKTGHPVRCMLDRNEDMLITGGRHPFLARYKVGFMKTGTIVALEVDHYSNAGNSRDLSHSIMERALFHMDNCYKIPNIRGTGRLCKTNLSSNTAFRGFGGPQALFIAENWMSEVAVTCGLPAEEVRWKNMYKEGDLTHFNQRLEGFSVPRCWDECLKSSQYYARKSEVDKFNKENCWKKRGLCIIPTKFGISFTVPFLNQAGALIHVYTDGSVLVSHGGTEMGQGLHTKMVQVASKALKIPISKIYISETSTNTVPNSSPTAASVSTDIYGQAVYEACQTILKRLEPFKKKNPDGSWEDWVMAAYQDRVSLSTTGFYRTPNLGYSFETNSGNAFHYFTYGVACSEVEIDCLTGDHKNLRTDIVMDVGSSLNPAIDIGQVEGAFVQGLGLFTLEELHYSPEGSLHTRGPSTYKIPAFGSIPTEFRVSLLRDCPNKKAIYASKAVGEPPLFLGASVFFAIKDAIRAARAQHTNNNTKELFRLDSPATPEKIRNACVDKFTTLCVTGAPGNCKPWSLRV

N#Cc1cn(-c2cc(C(=O)O)ccn2)cc1-c1ccccc1 [Example 20, 2-(3-Cyano-4-phenylpyrrole-1-yl)isonicotinic acid]
IC50 ([1]; 0.02 units/mL, xanthine 200 μM, 10 minutes at room temperature): 52.1 nM | inhibition % [2]: >90% | inhibition at 100 µM (human URAT1): 77%

N#Cc1cn(-c2ccc(C(=O)O)c(O)c2)cc1-c1ccccc1 [Example 301]
IC50 ([1]; 100 μM xanthine final): 6.2 nM | Percent decrease in uric acid (hypouricemic effect) (serum uric acid): over 50%

CCCCc1cn(-c2ccc(C(=O)O)c(O)c2)cc1C#N [Example 355]
IC50 ([1]; 100 μM xanthine final): 3.3 nM | inhibition % [2]: >90% | inhibition at 100 µM (human URAT1): 89%

N#Cc1cn(-c2ccc(C(=O)O)c(O)c2)cc1-c1cccs1 [Example 306]
IC50 ([1]; 100 μM xanthine final): 7.8 nM | inhibition % [2]: >90% | inhibition at 100 µM (human URAT1): 91%

N#Cc1cn(-c2ccc(C(=O)O)c(O)c2)cc1-c1ccsc1 [Example 314]
IC50 ([1]; 100 μM xanthine final): 5.2 nM | Percent decrease in uric acid (hypouricemic effect) (serum uric acid): over 50%
